According to paper PMC5642494 (Oncotarget, 2017):

Assays:
[1] = system: MCF7 cells; test: SA-β-gal immunofluorescence (senescence), MCF7; assay type: cell-based, human
Protocol: After treatment, cells were fixed, washed with PBS, permeabilized and β-gal was detected using anti-β-galactosidase antibody; for multiplexed assays, TUNEL staining was carried out using Roche TUNEL reagents as indicated above. Nuclei were also stained with PI for total cell counting. Plates were read in an Acumen Explorer Ex3 (TTP Labtech) and raw data were analyzed with Cellista software. Outputs were expressed as percentages of each identified subpopulation 1) positive β-gal, and 2) total cell number. The percentages of β-gal positive cells, TUNEL positive cells, and cell numbers were plotted in Microsoft Excel.

[2] = system: H3K9me3; test: Hypermethylation of histone H3 at lysine 9 (H3K9me3), MCF7; assay type: cell-based; details: Homo sapiens, 2 DT, n = 2, read-out: EC50 H3K9me3 levels
Protocol: (§1) Relative IC50/EC50 values were determined by curve fitting to a four parameter logistic equation: Y = bottom + ((top-bottom)/ (1+exp(HillSlope*(X – LnIC50)), where X is the natural log of dose/concentration, Y is response, decreasing as X increases, top and bottom are plateaus in the same units as Y, lnIC50 is the natural log of potency, in the same log units as X, and HillSlope measures the steepness of the curve. Data were plotted using GraphPad Prism.
BioResearch) where indicated; the dates of acquisition and in an Acumen Explorer Ex3 (TTP Labtech), raw data testing are listed in parentheses: ZR-75-1; T-47D; MDA- were analyzed with Cellista software and then further MB-468; HCC70; BT-549; BT-20; MDA-MB-231; MDA- normalized in Excel against the values obtained for cells MB-175-VII, HCC-1937; MDA-MB-415. treated with 2 µM BEZ235, or vehicle (0.2% v/v DMSO); data were graphed using GraphPad Prism®. Images were SA-β-galactosidase immunocytochemical labeling taken by fluorescent microscopy using a Leica DMiL. […]
SA-β-gal Cell samples were lysed after treatment with expression was determined using the Senescence Cells 100 µL lysis buffer and transferred to a 96-well plate. […]
(BSA) (Invitrogen #15260-037) for 1 hour at 25°C. EdU Samples were analyzed by LC─MS/MS under the detection was performed using the Click-iT High Content conditions described below. […]

[3] = system: MCF7 cells; test: BrdU incorporation ELISA in MCF7; assay type: cell-based; details: Homo sapiens, 3 DT
Protocol: as §1
After treatment, an ELISA for BrdU detection was performed (Roche, Cat. No. 11 669 915 001) following the vendor’s manual. Envision® (PerKinElmer) was used to measure the light emission of the samples and raw data were processed with Microsoft Excel and relative EC50 values were determined as described above. For normalization, the mean value obtained from cells treated with 2 µM […] doxorubicin (Sigma #D1515) was set as the minimum, and that obtained from treatment with the vehicle (0.2% DMSO) was set as the maximum.

- EC50 [2]: 340 ± 16 nM
- EC50 [3]: 178 nM
SMILES: CCN1CCN(Cc2ccc(Nc3ncc(F)c(-c4cc(F)c5nc(C)n(C(C)C)c5c4)n3)nc2)CC1 [abemaciclib, Abemaciclib]
- % β-gal Positive MCF7 Cells ([1]; 0.5 µM, 4 days): 16.15 ± 1.48%
- % β-gal Positive MCF7 Cells ([1]; 0.5 µM, 7 days): 16.25 ± 0.35%
- % β-gal Positive MCF7 Cells ([1]; 0.5 µM, 10 days): 19.7 ± 1.83%
- % β-gal Positive MCF7 Cells ([1]; 2 µM, 4 days): 42.45 ± 5.86%
- % β-gal Positive MCF7 Cells ([1]; 2 µM, 7 days): 55.4 ± 18.8%
- % β-gal Positive MCF7 Cells ([1]; 2 µM, 10 days): 30.85 ± 3.46%
